{"source": "paper PMC6268188", "about": "“Comparative Studies of the (Anti) Mutagenicity of Baccharis dracunculifolia and Artepillin C by the Bacterial Reverse Mutation Test” (Molecules, 2012)", "key": {"S. typhimurium TA102 [1]": {"test_system": "S. typhimurium TA102", "assay": "Antimutagenicity assay (Ames test with known mutagens), strain TA102", "type": "cell-based, Salmonella typhimurium"}, "S. typhimurium TA102 [2]": {"test_system": "S. typhimurium TA102"}, "[3]": {"conditions": "[…] + AF 10.0 μg/plate, TA 102, + S9"}, "[4]": {"conditions": "[…] + MMC 0.5 μg/plate, TA 102, − S9"}, "[5]": {"conditions": "0.69 µg/plate + AA 1.25 μg/plate, TA 97a, + S9"}, "[6]": {"conditions": "0.69 µg/plate + NOPD 10.0 μg/plate, TA 97a, − S9"}, "[7]": {"conditions": "1.37 µg/plate + AA 1.25 μg/plate, TA 97a, + S9"}, "[8]": {"conditions": "1.37 µg/plate + NOPD 10.0 μg/plate, TA 97a, − S9"}, "[9]": {"conditions": "2.75 µg/plate + AA 1.25 μg/plate, TA 97a, + S9"}, "[10]": {"conditions": "2.75 µg/plate + NOPD 10.0 μg/plate, TA 97a, − S9"}, "[11]": {"conditions": "5.49 µg/plate + AA 1.25 μg/plate, TA 97a, + S9"}, "[12]": {"conditions": "5.49 µg/plate + NOPD 10.0 μg/plate, TA 97a, − S9"}, "[13]": {"conditions": "[…] + AA 1.25 μg/plate, TA 97a, + S9"}, "[14]": {"conditions": "[…] + NOPD 10.0 μg/plate, TA 97a, − S9"}}, "note": "“And” between values parts separate entries of the source, which are not always exact repeats. Equal entries are not always repeated. Where two headings read alike, the source gives them in different places."}
{"smiles": "CC(C)=CCc1cc(/C=C/C(=O)O)cc(CC=C(C)C)c1O", "note": "[ArtC, 3-{4-hydroxy-3,5-di(3-methyl-2-butenyl)phenyl}-2(E)-propenoic acid]", "values": [{"measurement": "% inhibition", "setting": "S. typhimurium TA102 [1]; [3]", "value": 52, "unit": "%"}, {"measurement": "antimutagenic effect class", "setting": "S. typhimurium TA102 [1]; [3]", "value": "*** (strong antimutagenic effect (> 40% inhibition))"}, {"measurement": "% inhibition", "setting": "S. typhimurium TA102 [1]; [4]", "value": 18, "unit": "%"}, {"measurement": "antimutagenic effect class", "setting": "S. typhimurium TA102 [1]; [4]", "value": "* (no antimutagenic effect (< 25% inhibition))"}, {"measurement": "Number of revertants (M ± SD)/ plate", "setting": "S. typhimurium TA97a", "value": "891 ± 17 revertants/plate and 1602 ± 17 revertants/plate"}, {"measurement": "% inhibition", "setting": "S. typhimurium TA97a; [5]", "value": 14, "unit": "%"}, {"measurement": "Number of revertants (M ± SD)/ plate", "setting": "S. typhimurium TA97a; [5]", "value": "1603 ± 26", "unit": "revertants/plate"}, {"measurement": "antimutagenic effect class", "setting": "S. typhimurium TA97a; [5]", "value": "* (no antimutagenic effect (< 25% inhibition))"}, {"measurement": "% inhibition", "setting": "S. typhimurium TA97a; [6]", "value": 21, "unit": "%"}, {"measurement": "Number of revertants (M ± SD)/ plate", "setting": "S. typhimurium TA97a; [6]", "value": "876 ± 8", "unit": "revertants/plate"}, {"measurement": "antimutagenic effect class", "setting": "S. typhimurium TA97a; [6]", "value": "* (no antimutagenic effect (< 25% inhibition))"}, {"measurement": "% inhibition", "setting": "S. typhimurium TA97a; [7]", "value": 13, "unit": "%"}, {"measurement": "Number of revertants (M ± SD)/ plate", "setting": "S. typhimurium TA97a; [7]", "value": "1617 ± 16", "unit": "revertants/plate"}, {"measurement": "antimutagenic effect class", "setting": "S. typhimurium TA97a; [7]", "value": "* (no antimutagenic effect (< 25% inhibition))"}, {"measurement": "% inhibition", "setting": "S. typhimurium TA97a; [8]", "value": 22, "unit": "%"}, {"measurement": "Number of revertants (M ± SD)/ plate", "setting": "S. typhimurium TA97a; [8]", "value": "862 ± 14", "unit": "revertants/plate"}, {"measurement": "antimutagenic effect class", "setting": "S. typhimurium TA97a; [8]", "value": "* (no antimutagenic effect (< 25% inhibition))"}, {"measurement": "% inhibition", "setting": "S. typhimurium TA97a; [9]", "value": 10, "unit": "%"}, {"measurement": "Number of revertants (M ± SD)/ plate", "setting": "S. typhimurium TA97a; [9]", "value": "1669 ± 19", "unit": "revertants/plate"}, {"measurement": "antimutagenic effect class", "setting": "S. typhimurium TA97a; [9]", "value": "* (no antimutagenic effect (< 25% inhibition))"}, {"measurement": "% inhibition", "setting": "S. typhimurium TA97a; [10]", "value": 20, "unit": "%"}, {"measurement": "Number of revertants (M ± SD)/ plate", "setting": "S. typhimurium TA97a; [10]", "value": "885 ± 19", "unit": "revertants/plate"}, {"measurement": "antimutagenic effect class", "setting": "S. typhimurium TA97a; [10]", "value": "* (no antimutagenic effect (< 25% inhibition))"}, {"measurement": "% inhibition", "setting": "S. typhimurium TA97a; [11]", "value": 13, "unit": "%"}, {"measurement": "Number of revertants (M ± SD)/ plate", "setting": "S. typhimurium TA97a; [11]", "value": "1620 ± 21", "unit": "revertants/plate"}, {"measurement": "antimutagenic effect class", "setting": "S. typhimurium TA97a; [11]", "value": "* (no antimutagenic effect (< 25% inhibition))"}, {"measurement": "% inhibition", "setting": "S. typhimurium TA97a; [12]", "value": 16, "unit": "%"}, {"measurement": "Number of revertants (M ± SD)/ plate", "setting": "S. typhimurium TA97a; [12]", "value": "933 ± 7", "unit": "revertants/plate"}, {"measurement": "antimutagenic effect class", "setting": "S. typhimurium TA97a; [12]", "value": "* (no antimutagenic effect (< 25% inhibition))"}, {"measurement": "reduction of NOPD mutagenicity", "setting": "S. typhimurium TA97a; TA97a, NOPD", "value": "no antimutagenic activity"}, {"measurement": "reduction of AA mutagenicity", "setting": "S. typhimurium TA97a; TA97a, with metabolic activation, AA", "value": "no antimutagenic activity"}, {"measurement": "% inhibition", "setting": "S. typhimurium TA97a; [13]", "value": 14, "unit": "%"}, {"measurement": "antimutagenic effect class", "setting": "S. typhimurium TA97a; [13]", "value": "* (no antimutagenic effect (< 25% inhibition))"}, {"measurement": "% inhibition", "setting": "S. typhimurium TA97a; [14]", "value": 19, "unit": "%"}, {"measurement": "antimutagenic effect class", "setting": "S. typhimurium TA97a; [14]", "value": "* (no antimutagenic effect (< 25% inhibition))"}, {"measurement": "MI (mutagenicity index)", "setting": "S. typhimurium TA98; 0.69 µg/plate, TA 98, + S9", "value": 0.9}, {"measurement": "Number of revertants (M ± SD)/ plate", "setting": "S. typhimurium TA98; 0.69 µg/plate, TA 98, + S9", "value": "28 ± 3", "unit": "revertants/plate"}, {"measurement": "MI (mutagenicity index)", "setting": "S. typhimurium TA98; 0.69 µg/plate, TA 98, − S9", "value": 1.0}, {"measurement": "Number of revertants (M ± SD)/ plate", "setting": "S. typhimurium TA98; 0.69 µg/plate, TA 98, − S9", "value": "21 ± 3", "unit": "revertants/plate"}, {"measurement": "MI (mutagenicity index)", "setting": "S. typhimurium TA98; 1.37 µg/plate, TA 98, + S9", "value": 1.1}, {"measurement": "Number of revertants (M ± SD)/ plate", "setting": "S. typhimurium TA98; 1.37 µg/plate, TA 98, + S9", "value": "32 ± 1", "unit": "revertants/plate"}, {"measurement": "MI (mutagenicity index)", "setting": "S. typhimurium TA98; 1.37 µg/plate, TA 98, − S9", "value": 1.2}, {"measurement": "Number of revertants (M ± SD)/ plate", "setting": "S. typhimurium TA98; 1.37 µg/plate, TA 98, − S9", "value": "24 ± 4", "unit": "revertants/plate"}, {"measurement": "MI (mutagenicity index)", "setting": "S. typhimurium TA98; 2.75 µg/plate, TA 98, + S9", "value": 1.0}, {"measurement": "Number of revertants (M ± SD)/ plate", "setting": "S. typhimurium TA98; 2.75 µg/plate, TA 98, + S9", "value": "29 ± 3", "unit": "revertants/plate"}, {"measurement": "MI (mutagenicity index)", "setting": "S. typhimurium TA98; 2.75 µg/plate, TA 98, − S9", "value": 1.4}, {"measurement": "Number of revertants (M ± SD)/ plate", "setting": "S. typhimurium TA98; 2.75 µg/plate, TA 98, − S9", "value": "28 ± 5", "unit": "revertants/plate"}, {"measurement": "MI (mutagenicity index)", "setting": "S. typhimurium TA98; 5.49 µg/plate, TA 98, + S9", "value": 1.1}, {"measurement": "Number of revertants (M ± SD)/ plate", "setting": "S. typhimurium TA98; 5.49 µg/plate, TA 98, + S9", "value": "32 ± 2", "unit": "revertants/plate"}, {"measurement": "MI (mutagenicity index)", "setting": "S. typhimurium TA98; 5.49 µg/plate, TA 98, − S9", "value": 1.5}, {"measurement": "Number of revertants (M ± SD)/ plate", "setting": "S. typhimurium TA98; 5.49 µg/plate, TA 98, − S9", "value": "29 ± 1", "unit": "revertants/plate"}, {"measurement": "MI (mutagenicity index)", "setting": "S. typhimurium TA102 [2]; 0.69 µg/plate, TA 102, + S9", "value": 0.9}, {"measurement": "Number of revertants (M ± SD)/ plate", "setting": "S. typhimurium TA102 [2]; 0.69 µg/plate, TA 102, + S9", "value": "204 ± 4", "unit": "revertants/plate"}, {"measurement": "MI (mutagenicity index)", "setting": "S. typhimurium TA102 [2]; 0.69 µg/plate, TA 102, − S9", "value": 0.9}, {"measurement": "Number of revertants (M ± SD)/ plate", "setting": "S. typhimurium TA102 [2]; 0.69 µg/plate, TA 102, − S9", "value": "204 ± 4", "unit": "revertants/plate"}, {"measurement": "MI (mutagenicity index)", "setting": "S. typhimurium TA102 [2]; 1.37 µg/plate, TA 102, + S9", "value": 1.0}, {"measurement": "Number of revertants (M ± SD)/ plate", "setting": "S. typhimurium TA102 [2]; 1.37 µg/plate, TA 102, + S9", "value": "213 ± 3", "unit": "revertants/plate"}, {"measurement": "MI (mutagenicity index)", "setting": "S. typhimurium TA102 [2]; 1.37 µg/plate, TA 102, − S9", "value": 1.0}, {"measurement": "Number of revertants (M ± SD)/ plate", "setting": "S. typhimurium TA102 [2]; 1.37 µg/plate, TA 102, − S9", "value": "213 ± 3", "unit": "revertants/plate"}, {"measurement": "MI (mutagenicity index)", "setting": "S. typhimurium TA102 [2]; 2.75 µg/plate, TA 102, + S9", "value": 0.9}, {"measurement": "Number of revertants (M ± SD)/ plate", "setting": "S. typhimurium TA102 [2]; 2.75 µg/plate, TA 102, + S9", "value": "187 ± 5", "unit": "revertants/plate"}, {"measurement": "MI (mutagenicity index)", "setting": "S. typhimurium TA102 [2]; 2.75 µg/plate, TA 102, − S9", "value": 0.9}, {"measurement": "Number of revertants (M ± SD)/ plate", "setting": "S. typhimurium TA102 [2]; 2.75 µg/plate, TA 102, − S9", "value": "187 ± 5", "unit": "revertants/plate"}, {"measurement": "MI (mutagenicity index)", "setting": "S. typhimurium TA102 [2]; 5.49 µg/plate, TA 102, + S9", "value": 1.0}, {"measurement": "Number of revertants (M ± SD)/ plate", "setting": "S. typhimurium TA102 [2]; 5.49 µg/plate, TA 102, + S9", "value": "215 ± 5", "unit": "revertants/plate"}, {"measurement": "MI (mutagenicity index)", "setting": "S. typhimurium TA102 [2]; 5.49 µg/plate, TA 102, − S9", "value": 1.0}, {"measurement": "Number of revertants (M ± SD)/ plate", "setting": "S. typhimurium TA102 [2]; 5.49 µg/plate, TA 102, − S9", "value": "215 ± 5", "unit": "revertants/plate"}, {"measurement": "MI (mutagenicity index)", "setting": "S. typhimurium TA102 [2]; Salmonella typhimurium", "value": "203 ± 6 (0.9)"}, {"measurement": "Number of revertants (M ± SD)/ plate", "setting": "S. typhimurium TA102 [2]; Salmonella typhimurium", "value": "203 ± 6 (0.9) revertants/plate"}]}
